From PubChem BioAssay (NCI)
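48-hour exposure; five concentrations; linearly interpolated endpoints. TGI marks complete inhibition of growth.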

Legend:
Experiment in all cases: NCI-60 cell line screen, 48 h
SN12C renal = tested on: SN12C renal
CAKI-1 renal = tested on: CAKI-1 renal
786-0 renal = tested on: 786-0 renal
NCI-H226 lung = tested on: NCI-H226 lung
DMS 273 small cell lung = tested on: DMS 273 small cell lung
SR leukemia = tested on: SR leukemia
DLD-1 colon = tested on: DLD-1 colon
HCT-15 colon = tested on: HCT-15 colon
HCC-2998 colon = tested on: HCC-2998 colon
UACC-62 melanoma = tested on: UACC-62 melanoma
HL-60(TB) leukemia = tested on: HL-60(TB) leukemia
COLO 205 colon = tested on: COLO 205 colon
OVCAR-4 ovarian = tested on: OVCAR-4 ovarian
HOP-92 NSCLC = tested on: HOP-92 NSCLC
UO-31 renal = tested on: UO-31 renal
SK-MEL-28 melanoma = tested on: SK-MEL-28 melanoma
M14 melanoma = tested on: M14 melanoma
SK-MEL-2 melanoma = tested on: SK-MEL-2 melanoma
MOLT-4 leukemia = tested on: MOLT-4 leukemia
HOP-62 NSCLC = tested on: HOP-62 NSCLC
DMS 114 small cell lung = tested on: DMS 114 small cell lung
NCI-H522 lung = tested on: NCI-H522 lung
SK-OV-3 ovarian = tested on: SK-OV-3 ovarian
SF-539 CNS = tested on: SF-539 CNS
NCI-H23 lung = tested on: NCI-H23 lung
A498 renal = tested on: A498 renal
ACHN renal = tested on: ACHN renal
IGROV1 ovarian = tested on: IGROV1 ovarian
LXFL 529 NSCLC = tested on: LXFL 529 NSCLC
SNB-75 CNS = tested on: SNB-75 CNS
K-562 leukemia = tested on: K-562 leukemia
HCT-116 colon = tested on: HCT-116 colon
RPMI-8226 leukemia = tested on: RPMI-8226 leukemia
CCRF-CEM leukemia = tested on: CCRF-CEM leukemia
SF-268 CNS = tested on: SF-268 CNS
MALME-3M melanoma = tested on: MALME-3M melanoma
LOX IMVI melanoma = tested on: LOX IMVI melanoma
A549 NSCLC = tested on: A549 NSCLC
KM12 colon = tested on: KM12 colon
OVCAR-5 ovarian = tested on: OVCAR-5 ovarian
SK-MEL-5 melanoma = tested on: SK-MEL-5 melanoma
SW-620 colon = tested on: SW-620 colon
EKVX NSCLC = tested on: EKVX NSCLC
HT29 colon = tested on: HT29 colon
SF-295 CNS = tested on: SF-295 CNS
KM20L2 colon = tested on: KM20L2 colon
M19-MEL melanoma = tested on: M19-MEL melanoma
OVCAR-8 ovarian = tested on: OVCAR-8 ovarian
RXF 393 renal = tested on: RXF 393 renal
UACC-257 melanoma = tested on: UACC-257 melanoma
U251 CNS = tested on: U251 CNS
HOP-18 NSCLC = tested on: HOP-18 NSCLC
NCI-H460 lung = tested on: NCI-H460 lung
OVCAR-3 ovarian = tested on: OVCAR-3 ovarian
TK-10 renal = tested on: TK-10 renal

For `COc1cc([C@H]2Oc3cc(O)c4c(=O)cc(-c5ccccc5)oc4c3O[C@@H]2CO)ccc1O`, the TGI (SN12C renal) was > 100 µM, the TGI (CAKI-1 renal) was 79.1 µM and the TGI (786-0 renal) was 61.2 µM. For the same compound, the TGI (NCI-H226 lung) was 80.1 µM, the TGI (DMS 273 small cell lung) was > 100 µM and the TGI (SR leukemia) was > 100 µM. For the same compound, the TGI (DLD-1 colon) was > 100 µM, the TGI (HCT-15 colon) was > 100 µM and the TGI (HCC-2998 colon) was > 100 µM. The TGI (UACC-62 melanoma) was > 100 µM, the TGI (HL-60(TB) leukemia) was > 100 µM and the TGI (COLO 205 colon) was > 100 µM. For the same compound, the TGI (OVCAR-4 ovarian) was 89.4 µM, the TGI (HOP-92 NSCLC) was 58.1 µM and the TGI (UO-31 renal) was 58.6 µM. For the same compound, the TGI (SK-MEL-28 melanoma) was > 100 µM, the TGI (M14 melanoma) was > 100 µM and the TGI (SK-MEL-2 melanoma) was > 100 µM. For the same compound, the TGI (MOLT-4 leukemia) was > 100 µM, the TGI (HOP-62 NSCLC) was > 100 µM and the TGI (DMS 114 small cell lung) was > 100 µM. The TGI (NCI-H522 lung) was 72 µM, the TGI (SK-OV-3 ovarian) was 70.3 µM and the TGI (SF-539 CNS) was 56.6 µM. For the same compound, the TGI (NCI-H23 lung) was 69.2 µM, the TGI (A498 renal) was 73.4 µM and the TGI (ACHN renal) was 63.8 µM. The TGI (IGROV1 ovarian) was > 100 µM, the TGI (LXFL 529 NSCLC) was 77 µM and the TGI (SNB-75 CNS) was 39 µM. The TGI (K-562 leukemia) was > 100 µM, the TGI (HCT-116 colon) was > 100 µM and the TGI (RPMI-8226 leukemia) was > 100 µM. For the same compound, the TGI (CCRF-CEM leukemia) was > 100 µM, the TGI (SF-268 CNS) was > 100 µM and the TGI (MALME-3M melanoma) was 46.3 µM.
For `CN(C)c1nc2ccccc2[nH]1`, the TGI (SN12C renal) was > 100 µM, the TGI (CAKI-1 renal) was > 100 µM and the TGI (LOX IMVI melanoma) was > 100 µM. For the same compound, the TGI (786-0 renal) was > 100 µM, the TGI (A549 NSCLC) was > 100 µM and the TGI (KM12 colon) was > 100 µM. For the same compound, the TGI (OVCAR-5 ovarian) was > 100 µM, the TGI (SK-MEL-5 melanoma) was > 100 µM and the TGI (SW-620 colon) was > 100 µM. The TGI (EKVX NSCLC) was > 100 µM, the TGI (HT29 colon) was > 100 µM and the TGI (SF-295 CNS) was > 100 µM. For the same compound, the TGI (DMS 273 small cell lung) was > 100 µM, the TGI (DLD-1 colon) was > 100 µM and the TGI (KM20L2 colon) was > 100 µM. The TGI (HCT-15 colon) was > 100 µM, the TGI (HCC-2998 colon) was > 100 µM and the TGI (UACC-62 melanoma) was > 100 µM. For the same compound, the TGI (HL-60(TB) leukemia) was > 100 µM, the TGI (COLO 205 colon) was > 100 µM and the TGI (OVCAR-4 ovarian) was > 100 µM. The TGI (HOP-92 NSCLC) was > 100 µM, the TGI (UO-31 renal) was > 100 µM and the TGI (SK-MEL-28 melanoma) was > 100 µM. The TGI (M19-MEL melanoma) was > 100 µM, the TGI (OVCAR-8 ovarian) was > 100 µM and the TGI (M14 melanoma) was > 100 µM. The TGI (SK-MEL-2 melanoma) was > 100 µM, the TGI (MOLT-4 leukemia) was > 100 µM and the TGI (HOP-62 NSCLC) was > 100 µM. The TGI (DMS 114 small cell lung) was > 100 µM, the TGI (RXF 393 renal) was > 100 µM and the TGI (NCI-H522 lung) was > 100 µM. The TGI (SK-OV-3 ovarian) was > 100 µM, the TGI (SF-539 CNS) was > 100 µM and the TGI (UACC-257 melanoma) was > 100 µM. For the same compound, the TGI (NCI-H23 lung) was > 100 µM, the TGI (ACHN renal) was > 100 µM and the TGI (IGROV1 ovarian) was > 100 µM. The TGI (LXFL 529 NSCLC) was > 100 µM, the TGI (U251 CNS) was > 100 µM and the TGI (SNB-75 CNS) was > 100 µM. For the same compound, the TGI (K-562 leukemia) was > 100 µM, the TGI (HOP-18 NSCLC) was > 100 µM and the TGI (NCI-H460 lung) was > 100 µM. The TGI (RPMI-8226 leukemia) was > 100 µM, the TGI (CCRF-CEM leukemia) was > 100 µM and the TGI (SF-268 CNS) was > 100 µM. For the same compound, the TGI (OVCAR-3 ovarian) was > 100 µM, the TGI (TK-10 renal) was > 100 µM and the TGI (MALME-3M melanoma) was > 100 µM.
